The target of one test is T1, T2R43 (Homo sapiens, UniProt P59537, H212R/W35S).
T1 construct: expressed in transfected cells
T1 sequence (P59537 1-309 W35S/H212R): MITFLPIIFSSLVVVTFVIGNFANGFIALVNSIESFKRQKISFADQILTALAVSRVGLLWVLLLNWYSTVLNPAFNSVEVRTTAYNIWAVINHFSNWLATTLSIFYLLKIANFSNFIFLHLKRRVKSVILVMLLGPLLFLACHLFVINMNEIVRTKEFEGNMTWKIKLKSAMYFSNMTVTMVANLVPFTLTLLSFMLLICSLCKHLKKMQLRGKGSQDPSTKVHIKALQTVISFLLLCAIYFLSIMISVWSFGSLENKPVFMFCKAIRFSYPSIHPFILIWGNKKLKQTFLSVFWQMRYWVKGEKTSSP
The test is described as follows: Response of Gα-T2R43 stable expression cell line to agonist (Fluo-8 calcium fluorescence). Type of test: cell-based. The following applies: Gα-T2R43 compared with T2R43-Gα; agonist 100 μM or 300 μM; FIG. 3. The procedure:
(§1) Specifically, by the same method as in Example 1 and Example 2, a Gα-T2R40 stable expression cell line (containing Gα16/Gαgust43-IRES-ssr/T2R40N5) and a Gα-T2R43 stable expression cell line (containing Gα16/Gαgust43-IRES-ssr/T2R43/V5) were prepared.
(§2) The Gα-T2R40 stable expression cell line and the Gα-T2R43 stable expression cell line were prepared by the same method as in Example 2. […] The results are depicted in FIG. 3.

Test [1] addresses T2R38 subtype (bitter taste receptor) (Homo sapiens, UniProt P59533, A49P/I296V). The following applies: Gα-T2R38 stable expression cell line, FIG. 18. Here is the method:
A Gα-T2R38 expression vector comprising a gene encoding a T2R38 subtype (bitter taste receptor) instead of the gene encoding T2R16 of Gα-T2R16 in Examples 1 and 2 was prepared, and thus a stable expression cell line was prepared by the same method as in Examples 1 and 2.
Subsequently, using the same method as in Example 3, the response to a known T2R38 agonist, 6-n-propylthiouracil (1000 μM, 300 μM), was measured. As a control, a cell line (HEK293T) not incorporating any Gα-T2R38 expression vector was used.

For a further test, the target named is T2, T2R40 (Homo sapiens, UniProt P59535).
T2 construct: expressed in transfected cells
As to the kind of experiment: Response of Gα-T2R40 stable expression cell line to agonist (Fluo-8 calcium fluorescence). It counts as cell-based. The following applies: Gα-T2R40 compared with T2R40-Gα; agonist 100 μM or 300 μM; FIG. 3. The procedure: as §1, §2

For test [2], the target named is T3, olfactory receptor (OR3A1) (Homo sapiens, UniProt P47881).
T3 construct: N-terminal 21 amino acids of human rhodopsin (Rho); expressed in transfected cells; host or cells: HEK293T, transient, pcDNA vectors
T3 sequence (P47881 2-315 limits assumed): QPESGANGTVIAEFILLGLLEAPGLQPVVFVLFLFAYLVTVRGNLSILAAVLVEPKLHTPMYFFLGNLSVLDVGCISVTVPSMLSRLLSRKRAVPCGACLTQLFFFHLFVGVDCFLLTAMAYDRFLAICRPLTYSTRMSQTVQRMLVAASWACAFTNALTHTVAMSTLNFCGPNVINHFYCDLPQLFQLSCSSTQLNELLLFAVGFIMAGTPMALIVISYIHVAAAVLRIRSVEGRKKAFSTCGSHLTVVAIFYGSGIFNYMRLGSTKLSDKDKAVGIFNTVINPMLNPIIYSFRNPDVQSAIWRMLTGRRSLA
As to the kind of experiment: cAMP response in cells transiently expressing olfactory receptor (cAMP-GloMax luminescence). The following applies: FIG. 20. Type of test: cell-based. The procedure: Genes encoding Rho-OR3A1, in which N-terminal 21 amino acids (Rho) of human rhodopsin had been added to the N-terminus of OR3A1, and Gαolf were introduced together with IRES into pcDNA vectors by the same method as in Example 1, thereby preparing expression vectors, OR3A1-Gαolf and Gαolf-OR3A1. Using these expression vectors, transiently expressing HEK293T cells were prepared by the same method as in Example 4. As a control, HEK293T cells prepared by separate introduction of each gene of OR3A1 and Gαolf into pcDNA and then double-gene transfer thereof were used.
Next, helional, a known agonist for OR3A1, was added onto the prepared cells (100 μM, 30 μM). The amount of cAMP produced in association with the response of OR3A1 20 minutes after the addition of helional was detected by luminescence measurement using a cAMP-GloMax assay kit (Promega).

Test [3] concerns the target T4, human bitter taste receptor (T2R16) (Homo sapiens, UniProt Q9NYV7).
T4 construct: N-terminal 45 amino acids of rat somatostatin receptor 3 (ssr3); expressed in transfected cells
T4 sequence (Q9NYV7 1-291): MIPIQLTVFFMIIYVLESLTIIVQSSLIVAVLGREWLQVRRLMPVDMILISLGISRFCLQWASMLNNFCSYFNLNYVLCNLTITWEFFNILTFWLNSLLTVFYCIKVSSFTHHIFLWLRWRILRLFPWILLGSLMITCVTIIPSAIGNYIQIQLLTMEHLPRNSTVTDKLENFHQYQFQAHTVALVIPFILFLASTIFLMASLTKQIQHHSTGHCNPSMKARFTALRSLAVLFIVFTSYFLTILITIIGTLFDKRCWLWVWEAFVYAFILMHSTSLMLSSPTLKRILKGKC
As to the kind of experiment: Response of T2R16 stable expression cell line to bitter substance (Fluo-8 calcium fluorescence). The following applies: salicin 10, 3, 1, 0.3 or 0.1 mM, FIG. 2. It counts as cell-based. Here is the method:
Specifically, into 1×10^6 cells of the human embryonic kidney cell line HEK293T (obtained from RIKEN) seeded in a culture vessel, 5 μg of each of the Gα-T2R16 and T2R16-Gα plasmid vectors prepared in Example 1 was introduced through the use of lipofectamine (registered trademark) 3000 (Thermo Fisher Scientific Inc.). After 48 hours of culture, drug resistance screening was performed by adding 100 μg/mL hygromycin B to the medium and then culturing for about 15 days. Cells that had acquired drug resistance were cloned by seeding these cells in each well of a 96-well plate at one cell per well. After about 10 days of culture, a stable expression cell line was obtained.
The T2R16 stable expression cell line prepared based on the method described in Example 2 was seeded at 2×10^4 cells/well in a 96-well plate. The culture media for cells contained a green fluorescent calcium indicator Fluo-8 (registered trademark) (AAT Bioquest, Inc.), and the uptake of Fluo-8 into the cell lines was examined. Fluo-8 (registered trademark) is suitable for detection of intracellular calcium dynamics and is an indicator of GPCR activity.
Cells incorporating Fluo-8 (registered trademark) were excited at 490 nm and the fluorescence intensity at 514 nm was measured. […] The results are depicted in FIG. 2.

Test [4] addresses T5, T2R16 (Homo sapiens, UniProt Q9NYV7).
T5 construct: expressed in transfected cells
T5 sequence (Q9NYV7 1-291): T4 sequence (Q9NYV7 1-291)
The test is described as follows: Response of T2R16 transiently expressing cells to bitter substance. Type of test: cell-based. The following applies: transient Gα-T2R16 in HEK293T compared with T2R16-Gα, co-transfection and Gα stable; FIG. 4. Here is the method: Into HEK293T seeded at 2×10^4 in a 96-well plate, 0.1 μg of each of the Gα-T2R16 and the T2R16-Gα plasmid vectors was introduced using lipofectamine (registered trademark) 3000. After 30 hours of culture, response intensity to salicin was measured using the same technique as in Example 3 (1) (maximum fluorescence intensity during 40 seconds after the addition of salicin). Note that drug resistance screening with hygromycin B as in Example 2 was not performed (transiently expressing cells).
Furthermore, as a comparative example, the following cells were also prepared other than T2R16-Gα expressing cells, and then the response to salicin was measured:
cells (cotransfection), prepared by simultaneous gene transfer of a total of 0.1 μg of a Gα16/Gαgust43gust expression vector and a ssr-T2R16-V5 expression vector comprising a Gα16/Gαgust43 expression gene and a ssr-T2R16-V5 expression gene, respectively, via incorporation thereof into pcDNA3.1 Hygro(+) vectors for transient expression of the genes; and
cells (Gα stable), prepared by the gene transfer of 0.1 μg of a ssr-T2R16-V5 expression vector into a Gα16/Gαgust43 stable expression cell line (subjected in advance to drug resistance screening using hygromycin B) prepared by the same technique as in Example 2 for transient expression of the genes.

Test [5] concerns the target T5, T2R16. As to the kind of experiment: Response intensity before and after cryopreservation of T2R16 stable expression cell line. It counts as cell-based. The following applies: FIG. 7. Here is the method:
Gα-T2R16 in this example was prepared in the same manner as in the case of the Gα-T2R16 stable expression cell line in Example 2, but pEAK10 (Edge biosystem, Inc.) was used as an expression vector and “ssr/T2R16” (without V5) was inserted instead of “ssr/T2R16/V5”. Further, drug resistance screening was performed with 1 μg/mL puromycin instead of hygromycin B.
As a comparative example, into the Gα16/Gαgust43 stable expression cell line (subjected in advance to drug resistance screening with puromycin) prepared using the same technique as in Example 2, 5 μg of ssr-T2R16 expression vector was introduced and then drug resistance screening was performed using puromycin. The thus prepared stable expression cell line (Double stable) stably expressing Gα16/Gαgust43+T2R16 was used.
Before and after cryopreservation of the cell line, the response intensity to salicin (1 or 0.1 mM) was examined in the same manner as in Example 3. For cryopreservation, CELLBANKER (Nippon Zenyaku Kogyo Co., Ltd.) was used, and cells were stored under liquid nitrogen for 1 month. The temperature for the cryopreserved cells was brought back to normal temperature, cells were passaged at least twice, and then the response intensity after cryopreservation was measured. The results are depicted in FIG. 7.

Like-named read-outs stand apart in the source and are kept apart here. Some results are limits rather than exact numbers.

Sequence of T2R38 subtype (bitter taste receptor) (P59533 whole entry A49P/I296V): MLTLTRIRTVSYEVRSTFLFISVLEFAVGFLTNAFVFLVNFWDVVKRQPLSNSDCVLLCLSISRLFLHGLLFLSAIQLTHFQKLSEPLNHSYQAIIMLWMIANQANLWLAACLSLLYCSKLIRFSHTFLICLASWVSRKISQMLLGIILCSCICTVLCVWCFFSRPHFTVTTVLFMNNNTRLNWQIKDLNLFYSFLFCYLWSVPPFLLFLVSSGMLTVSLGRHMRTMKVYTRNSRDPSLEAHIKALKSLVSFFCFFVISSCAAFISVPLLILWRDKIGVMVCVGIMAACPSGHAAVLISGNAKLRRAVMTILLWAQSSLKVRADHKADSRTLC
T2 sequence (P59535 whole entry): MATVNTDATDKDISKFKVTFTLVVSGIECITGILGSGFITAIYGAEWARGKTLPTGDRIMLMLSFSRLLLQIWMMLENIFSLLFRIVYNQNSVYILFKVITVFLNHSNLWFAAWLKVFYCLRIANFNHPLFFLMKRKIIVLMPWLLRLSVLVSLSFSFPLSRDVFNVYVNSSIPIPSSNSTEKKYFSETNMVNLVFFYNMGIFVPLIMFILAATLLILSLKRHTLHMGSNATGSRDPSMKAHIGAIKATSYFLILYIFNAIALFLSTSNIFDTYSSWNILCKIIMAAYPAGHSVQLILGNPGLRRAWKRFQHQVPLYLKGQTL

Take `C=C[C@H]1C[N@@]2CC[C@H]1C[C@H]2[C@H](O)c1ccnc2ccc(OC)cc12` [quinine]: the “response intensity of T2R43 to the agonist” value at T2R43 is listed as “higher response intensity”.
With `CCCc1cc(=O)[nH]c(=S)[nH]1` [6-n-propylthiouracil], the “response to T2R38 agonist” value in test [1] (300 μM) and in test [1] (1000 μM) was “exhibited” in each case.
As for `OC(CCCN1CCCCC1)(c1ccccc1)c1ccccc1` [diphenydol], the “response intensity of T2R40 to the agonist” value at T2R40 is on record as “higher response intensity”.
As for `CC(C=O)Cc1ccc2c(c1)OCO2` (centres unmarked) [helional], the “amount of cAMP produced in association with the response of OR3A1” value is given as “increase in cAMP” in test [2] (HEK293T cells with Gαolf-OR3A1 expression vector, 100 μM helional, 20 minutes after addition); “no response” in test [2] (HEK293T cells with OR3A1-Gαolf expression vector, helional 100 μM, 30 μM, 20 minutes); “no response” in test [2] (HEK293T cells with OR3A1 and Gαolf genes introduced separately, helional 100 μM, 30 μM, 20 minutes).
Turning to `OCc1ccccc1O[C@@H]1O[C@H](CO)[C@@H](O)[C@H](O)[C@H]1O` [salicin], the figures for the “response intensity of T2R16 to the agonist (increase rate of maximum fluorescence intensity)” value in test [3] (HEK293T stable cell line containing the Gα-T2R16 plasmid) and in test [3] (cell line containing the comparative T2R16-Gα plasmid) were “exhibited responses” and “almost no response”, respectively. The “response intensity to salicin” value on T2R16 [4] was “response intensity higher”. Moreover, the “ratio of response intensity after freezing/response intensity before freezing” value at T2R16 [5] (Gα-T2R16 stable expression cell line (pEAK10), salicin 0.1 mM, 1 month under liquid nitrogen) is on record as at least 0.8; at T2R16 [5] (Gα-T2R16 stable expression cell line (pEAK10), salicin 1 mM, 1 month under liquid nitrogen), at least 0.8; on T2R16 [5] (comparative Double stable cell line (Gα16/Gαgust43+T2R16), salicin 0.1 mM), at most 0.4; on T2R16 [5] (comparative Double stable cell line (Gα16/Gαgust43+T2R16), salicin 1 mM), “less than 0.6”.

The values above are taken from patent US20200247859A1, “CONSTRUCT FOR EXPRESSING G PROTEIN-COUPLED RECEPTOR OR SUBUNIT THEREOF, AND USE OF SAID CONSTRUCT” (JAPAN TOBACCO INC., priority 2017, published 2020).
